These results are taken from patent publication US11203574B2 (BioCryst Pharmaceuticals, Inc., priority 2014, dated 2021).

The target in one test is human plasma kallikrein (Homo sapiens (Human), UniProt P03952). The test is described as follows: Plasma kallikrein activity assay (chromogenic substrate S2302). The settings on record: 2 nM kallikrein, 80 μM S2302, 30° C., pH 7.8; Ki by Cheng-Prusoff equation; values given as ranges; read-out: Ki. The test is classed as biochemical.
Test [1] concerns hereditary angioedema (HAE). The settings on record: bradykinin B2 receptor antagonist; cited from earlier work.

Sequence of human plasma kallikrein (P03952 whole entry, looked up): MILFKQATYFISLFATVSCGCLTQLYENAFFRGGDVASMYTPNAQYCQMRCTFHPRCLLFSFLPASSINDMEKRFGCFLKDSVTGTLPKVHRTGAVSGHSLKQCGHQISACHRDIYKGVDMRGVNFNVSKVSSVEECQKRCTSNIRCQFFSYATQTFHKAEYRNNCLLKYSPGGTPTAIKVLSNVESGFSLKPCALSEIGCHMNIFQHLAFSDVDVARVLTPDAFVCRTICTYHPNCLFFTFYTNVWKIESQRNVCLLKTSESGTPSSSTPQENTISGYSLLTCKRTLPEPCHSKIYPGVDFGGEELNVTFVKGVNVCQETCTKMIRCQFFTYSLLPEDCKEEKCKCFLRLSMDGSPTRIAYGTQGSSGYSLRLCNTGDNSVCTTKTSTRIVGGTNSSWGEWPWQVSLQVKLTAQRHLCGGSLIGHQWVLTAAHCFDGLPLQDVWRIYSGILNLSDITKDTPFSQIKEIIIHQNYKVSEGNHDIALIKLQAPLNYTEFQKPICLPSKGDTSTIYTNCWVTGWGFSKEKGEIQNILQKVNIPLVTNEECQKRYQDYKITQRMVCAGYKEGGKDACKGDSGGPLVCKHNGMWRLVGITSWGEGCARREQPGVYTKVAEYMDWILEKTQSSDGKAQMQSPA
Sequence of human plasma kallikrein (P03952 whole entry partner, looked up): as the sequence (P03952 whole entry, looked up) above

Take `Cc1ccc(C)c(C(NCC2CC2)c2cccc(NC(=O)c3cc(C(F)(F)F)nn3-c3cccc(CN)c3)c2)c1` (stereo not shown) [202f, 1-(3-(aminomethyl)phenyl)-N-(3-(((cyclopropylmethyl)amino)(2,5-dimethylphenyl)methyl)phenyl)-3-(trifluoromethyl)-1H-pyrazole-5-carboxamide]: at human plasma kallikrein, the Ki was 0.1 to 50 nM.

As for `NCc1cccc(-n2nc(C(F)(F)F)cc2C(=O)Nc2cccc(C(NCC3CC3)c3ccc(O)c(Br)c3)c2)c1` (stereo not shown) [207j, 1-(3-(Aminomethyl)phenyl)-N-(3-((3-bromo-4-hydroxyphenyl)(cyclopropylmethylamino)methyl)phenyl)-3-(trifluoromethyl)-1H-pyrazole-5-carboxamide], the Ki on human plasma kallikrein was in the range of 0.1 to 50 nM.

Turning to `NCc1cccc(-n2nc(C(F)(F)F)cc2C(=O)Nc2cccc(C(CCC3CC3)n3ccccc3=O)c2)c1` (stereo not shown) [247c, 1-(3-(aminomethyl)phenyl)-N-(3-(3-cyclopropyl-1-(2-oxopyridin-1(2H)-yl)propyl)phenyl)-3-(trifluoromethyl)-1H-pyrazole-5-carboxamide], at human plasma kallikrein, the Ki lay in the range of 0.1 to 50 nM.

As for `NCc1cccc(-n2nc(C(F)(F)F)cc2C(=O)Nc2cccc(C(CCC3CC3)N3CCCC3=O)c2)c1` (stereo not shown) [247e, 1-(3-(aminomethyl)phenyl)-N-(3-(3-cyclopropyl-1-(2-oxopyrrolidin-1-yl)propyl)phenyl)-3-(trifluoromethyl)-1H-pyrazole-5-carboxamide], the Ki at human plasma kallikrein was 0.1 to 50 nM.

Take `NCc1cccc(-n2nc(C(F)(F)F)cc2C(=O)Nc2cc(C(CCC3CC3)n3ccncc3=O)ccc2F)c1` (stereo not shown) [249b, 1-(3-(aminomethyl)phenyl)-N-(5-(3-cyclopropyl-1-(2-oxopyrazin-1(2H)-yl)propyl)-2-fluorophenyl)-3-(trifluoromethyl)-1H-pyrazole-5-carboxamide]: the Ki on human plasma kallikrein lay in the range of 0.1 to 50 nM.

Take `CN1CCCN(C(CCC2CC2)c2ccc(F)c(NC(=O)c3cc(C(F)(F)F)nn3-c3cccc(CN)c3)c2)CC1` (stereo not shown) [251e, 1-(3-(aminomethyl)phenyl)-N-(5-(3-cyclopropyl-1-(4-methyl-1,4-diazepan-1-yl)propyl)-2-fluorophenyl)-3-(trifluoromethyl)-1H-pyrazole-5-carboxamide]: the Ki at human plasma kallikrein is 50 to 100 nM.

For the compound `NCc1cccc(-n2nc(C(F)(F)F)cc2C(=O)Nc2cc(C(=CCC3CC3)c3ccccc3)ccc2F)c1` [252c, 1-(3-(aminomethyl)phenyl)-N-(5-(3-cyclopropyl-1-phenylprop-1-enyl)-2-fluorophenyl)-3-(trifluoromethyl)-1H-pyrazole-5-carboxamide], the Ki at human plasma kallikrein was 0.1 to 50 nM.

Turning to `Nc1nccc2ccc(-n3nc(C(F)(F)F)cc3C(=O)Nc3cc(C(CCC4CC4)n4ccccc4=O)ccc3F)cc12` (stereo not shown) [258g, 1-(1-aminoisoquinolin-7-yl)-N-(5-(3-cyclopropyl-1-(2-oxopyridin-1(2H)-yl)propyl)-2-fluorophenyl)-3-(trifluoromethyl)-1H-pyrazole-5-carboxamide], at human plasma kallikrein, the Ki fell in the range of 0.1 to 50 nM.

On to `Nc1nccc2ccc(-n3nc(C(F)(F)F)cc3C(=O)Nc3cc(C(CCC4CC4)n4ccncc4=O)ccc3F)cc12` (stereo not shown) [259d, 1-(1-aminoisoquinolin-7-yl)-N-(5-(3-cyclopropyl-1-(2-oxopyrazin-1(2H)-yl)propyl)-2-fluorophenyl)-3-(trifluoromethyl)-1H-pyrazole-5-carboxamide], for which the inhibition constant (Ki) on human plasma kallikrein lay within 0.1 to 50 nM.

`NCc1cccc(-n2nc(C(F)(F)F)cc2C(=O)Nc2cc(C(CCC3CC3)N3C(=O)CCC3=O)ccc2F)c1` (stereo not shown) [260b, 1-(3-(aminomethyl)phenyl)-N-(5-(3-cyclopropyl-1-(2,5-dioxopyrrolidin-1-yl)propyl)-2-fluorophenyl)-3-(trifluoromethyl)-1H-pyrazole-5-carboxamide]: the Ki at human plasma kallikrein was 0.1 to 50 nM.

Consider `NCc1cccc(-n2nc(C(F)(F)F)cc2C(=O)Nc2cc(C(CCC3CC3)n3ccc(=O)[nH]c3=O)ccc2F)c1` (stereo not shown) [263d, 1-(3-(aminomethyl)phenyl)-N-(5-(3-cyclopropyl-1-(2,4-dioxo-3,4-dihydropyrimidin-1(2H)-yl)propyl)-2-fluorophenyl)-3-(trifluoromethyl)-1H-pyrazole-5-carboxamide], for which, at human plasma kallikrein, the Ki fell in the range of 0.1 to 50 nM.

As for `Nc1nccc2ccc(-n3nc(C(F)(F)F)cc3C(=O)Nc3cc(C(CCC4CC4)n4ccc(=O)[nH]c4=O)ccc3F)cc12` (stereo not shown) [269b, 1-(1-aminoisoquinolin-7-yl)-N-(5-(3-cyclopropyl-1-(2,4-dioxo-3,4-dihydropyrimidin-1(2H)-yl)propyl)-2-fluorophenyl)-3-(trifluoromethyl)-1H-pyrazole-5-carboxamide], at human plasma kallikrein, the Ki was in the range of 0.1 to 50 nM.

With `NC(N)=NCCC[C@@H](N)C(=O)N[C@@H](CCCN=C(N)N)C(=O)N1CCC[C@H]1C(=O)N1C[C@H](O)C[C@H]1C(=O)NCC(=O)N[C@@H](Cc1cccs1)C(=O)N[C@@H](CO)C(=O)N1Cc2ccccc2C[C@@H]1C(=O)N1[C@H](C(=O)N[C@@H](CCCN=C(N)N)C(=O)O)C[C@@H]2CCCC[C@@H]21` [Icatibant], the “treatment of HAE” value in test [1] was “effective in treating HAE”.

One may read the Ki as a dissociation constant, usually derived from enzyme kinetics or from competition with a known ligand.
